Tested on: human monocyte-derived M1 macrophages
Assay: Lipid mediator (LM) formation in human monocyte-derived M1 macrophages, UPLC-MS-MS
Format: cell-based
Settings: M1, single agents: extracts 50 μg/mL, AKBA 10 μM, AvailOm® 3 μg/mL, 180 min (FIG. 1)
Experimental: Leukocyte concentrates from freshly withdrawn peripheral blood of healthy adult human donors were provided by the Institute of Transfusion Medicine, University Hospital Jena, Germany. The experimental protocol was approved by the ethical committee of the University Hospital Jena. All methods were performed in accordance with the relevant guidelines and regulations. Peripheral blood mononuclear cells (PBMC) were isolated using dextran sedimentation and Ficoll-Histopaque 1077-1 (Sigma-Aldrich, Taufkirchen, Germany) centrifugation. For differentiation and polarization towards M1 and M2, published criteria were used. […]
Macrophages (2×10^6/ml) were incubated in PBS containing 1 mM CaCl2). […] Supernatants were transferred to 2 ml of ice-cold methanol containing 10 μl of deuterium-labeled internal standards (200 nM […], d4-LTB4, d5-LXA4, d5-RvD2, d4-PGE2 and 10 μM d8-AA) to facilitate quantification. […] LM profiling was analyzed with an Acquity™ UPLC system (Waters, Milford, MA) and a QTRAP 5500 Mass Spectrometer (ABSciex, Darmstadt, Germany) equipped with a Turbo VTM Source and electrospray ionization (ESI). […] Quantification was achieved by calibration curves for each LM. […]

3-O-acetyl-11-keto-beta-boswellic acid [AKBA]
LM formation / LM biosynthesis: did not significantly elevate

From patent publication US12274728B2, “Preparation comprising omega-3 fatty acid salts and extracts of gum resins from Boswellia species” (Evonik Operations GmbH, priority 2019, dated 2025)
